Data published in patent EP4667466A1, “PROTAC DEGRADERS OF MLLT1 AND/OR MLLT3” (priority 2024, dated 2025).

How the values were obtained:
[1] = target: T1, MLLT1 (Homo sapiens, UniProt Q03111); experiment: MLLT1 degradation assay (JESS automated chemiluminescent detection) in MV4-11 cells; type: cell-based; settings: 24h, with respect to DMSO control
T1 construct: endogenous in cells; host or cells: MV4-11 (ATCC CRL-9591)
T1 sequence (Q03111 1-559): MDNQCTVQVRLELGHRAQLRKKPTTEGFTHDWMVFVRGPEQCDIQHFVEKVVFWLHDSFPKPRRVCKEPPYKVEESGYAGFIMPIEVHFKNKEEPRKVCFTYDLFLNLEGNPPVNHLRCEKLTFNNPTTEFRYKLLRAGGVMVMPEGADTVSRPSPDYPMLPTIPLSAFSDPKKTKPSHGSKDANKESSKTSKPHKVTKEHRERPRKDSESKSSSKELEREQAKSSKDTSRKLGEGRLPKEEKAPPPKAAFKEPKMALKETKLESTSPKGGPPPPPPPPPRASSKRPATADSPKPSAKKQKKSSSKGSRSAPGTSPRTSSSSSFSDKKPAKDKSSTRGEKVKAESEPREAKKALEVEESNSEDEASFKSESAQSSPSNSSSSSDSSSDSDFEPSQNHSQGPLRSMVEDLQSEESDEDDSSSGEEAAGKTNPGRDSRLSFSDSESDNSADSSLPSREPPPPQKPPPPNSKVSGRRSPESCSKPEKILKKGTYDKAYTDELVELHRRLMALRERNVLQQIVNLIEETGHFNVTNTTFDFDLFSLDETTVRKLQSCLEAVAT
How it was run: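 MV4-11 cells were treated with 1000, 100 or 10 nM compound (0.1% DMSO) for 24 h at 37 °C. Lysates (4 µg protein) were probed for MLLT1 and GAPDH by JESS capillary chemiluminescence. Degradation was calculated from band peak areas versus DMSO control and binned into categories A–D.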

[2] = tested on: MV4-11 cells; experiment: MV4-11 cellular proliferation assay, Assay Format A (CellTiter-Glo, 120 hours); type: cell-based; settings: Homo sapiens, Assay method A, read-out: MV4-11 antiproliferative IC50
Experimental: An MV4-11 proliferation assay was used to test the ability of compounds to reduce cell viability.
After 120 hours of treatment, cells were incubated for 10 min at RT with the CellTiter-Glo (CTG) reagent (G7571, Promega). Measurement of the luminescence signal was performed on a microplate reader (Ensight, PerkinElmer). CTG reagent measures the amount of ATP, which is directly proportional to the number of cells, to determine the number of viable cells in culture.
The data were analysed as follows: Data normalization, N(x) = (x−〈cr〉)/(〈sr〉−〈cr〉) × 100 [formula] where x is the measured raw signal value of a well, (cr) is the median of the measured signal values for the Central Reference (DMSO) wells on a plate, (sr) is the median of the measured signal values for the Scale Reference (reference compound) wells on a plate. Curve fitting, S0 + (Sinf −S0)/(1 + (((AC50)/(10^c)))^n) [formula] where the experimental set-up assumes the Hill parameters in certain ranges: S0 ~ Central Reference (CR) from normalization (= Bottom), Sinf ~ Scale Reference (SR) from normalization (= Top), nHill ~ 1, AC50 ~ within the measured concentration range.

| Compound | inhibition at 0.01 µM [1] [%] | inhibition at 0.1 µM [1] [%] | inhibition at 1 µM [1] [%] | IC50 [2] [nM] |
| --- | --- | --- | --- | --- |
| Cc1nn(CCCCCCCC#Cc2cccc3c2CN(C2CCC(=O)NC2=O)C3=O)c2cc(C(=O)Nc3cc4[nH]c([C@H]5CCCN5C)cc4cn3)ccc12 (mixture of isomers) [Example 1, 1-(9-(2-(2,6-dioxopiperidin-3-yl)-1-oxoisoindolin-4-yl)non-8-yn-1-yl)-3-methyl-N-(2-((R)-1-methylpyrrolidin-2-yl)-1H-pyrrolo[3,2-c]pyridin-6-yl)-1H-indazole-6-carboxamide] | ≥ 75 | ≥ 75 | ≥ 75 | 4 |
| Cc1nn(CCCCCCCCNc2ccc3c(c2)C(=O)N(C2CCC(=O)NC2=O)C3=O)c2cc(C(=O)Nc3cc4[nH]c([C@@H]5CCCN5C)cc4cn3)ccc12 (stereo partly drawn) [Example 15, 1-(8-{[2-(2,6-dioxopiperidin-3-yl)-1,3-dioxoisoindol-5-yl]amino}octyl)-3-methyl-N-{2-[(2S)-1-methylpyrrolidin-2-yl]-1H-pyrrolo[3,2-c]pyridin-6-yl}indazole-6-carboxamide] | < 25 | ≥ 75 | ≥ 75 | 12 |
| Cc1nn(CCCCCCCCNc2cccc3c2CN(C2CCC(=O)NC2=O)C3=O)c2cc(C(=O)Nc3cc4[nH]c([C@H]5CCCN5C)cc4cn3)ccc12 (stereo partly drawn) [Example 16, 1-(8-{[2-(2,6-dioxopiperidin-3-yl)-1-oxo-3H-isoindol-4-yl]amino}octyl)-3-methyl-N-{2-[(2R)-1-methylpyrrolidin-2-yl]-1H-pyrrolo[3,2-c]pyridin-6-yl}indazole-6-carboxamide] | ≥ 75 | ≥ 75 | ≥ 75 | 9 |
| Cc1nn(CCCCNc2cccc3c2C(=O)N(C2CCC(=O)NC2=O)C3=O)c2cc(C(=O)Nc3cc4[nH]c([C@H]5CCCN5C)cc4cn3)ccc12 (stereo partly drawn) [Example 21, 1-(4-((2-(2,6-dioxopiperidin-3-yl)-1,3-dioxoisoindolin-4-yl)amino)butyl)-3-methyl-N-(2-((R)-1-methylpyrrolidin-2-yl)-1H-pyrrolo[3,2-c]pyridin-6-yl)-1H-indazole-6-carboxamide] | ≥ 75 | ≥ 75 | ≥ 75 | 11 |
| Cc1nn(CCCCCCNc2cccc3c2C(=O)N(C2CCC(=O)NC2=O)C3=O)c2cc(C(=O)Nc3cc4[nH]c([C@H]5CCCN5C)cc4cn3)ccc12 (stereo partly drawn) [Example 22, 1-(6-{[2-(2,6-dioxopiperidin-3-yl)-1,3-dioxoisoindol-4-yl]amino}hexyl)-3-methyl-N-{2-[(2R)-1-methylpyrrolidin-2-yl]-1H-pyrrolo[3,2-c]pyridin-6-yl}indazole-6-carboxamide] | ≥ 75 | ≥ 75 | ≥ 75 | 8 |
| Cc1nn(CCOCCOCCNc2cccc3c2C(=O)N(C2CCC(=O)NC2=O)C3=O)c2cc(C(=O)Nc3cc4[nH]c([C@H]5CCCN5C)cc4cn3)ccc12 (stereo partly drawn) [Example 25, 1-(2-(2-(2-((2-(2,6-dioxopiperidin-3-yl)-1,3-dioxoisoindolin-4-yl)amino)ethoxy)ethoxy)ethyl)-3-methyl-N-(2-((R)-1-methylpyrrolidin-2-yl)-1H-pyrrolo[3,2-c]pyridin-6-yl)-1H-indazole-6-carboxamide] | – | ≥ 75 | ≥ 75 | 11 |

Now from value to compound:

| inhibition at 0.01 µM [1] [%] | inhibition at 0.1 µM [1] [%] | inhibition at 1 µM [1] [%] | IC50 [2] [nM] | Compound |
| --- | --- | --- | --- | --- |
| – | ≥ 75 | ≥ 75 | 14 | Cc1nn(CCOCCNc2cccc3c2C(=O)N(C2CCC(=O)NC2=O)C3=O)c2cc(C(=O)Nc3cc4[nH]c([C@H]5CCCN5C)cc4cn3)ccc12 (stereo partly drawn) [Example 26, 1-(2-(2-((2-(2,6-dioxopiperidin-3-yl)-1,3-dioxoisoindolin-4yl)amino)ethoxy)ethyl)-3-methyl-N-(2-((R)-1-methylpyrrolidin-2-yl)-1H-pyrrolo[3,2-c]pyridin-6-yl)-1H-indazole-6-carboxamide] |
| ≥ 75 | ≥ 75 | ≥ 75 | 6 | Cc1nn(CCCCCC#Cc2cccc3c2CN(C2CCC(=O)NC2=O)C3=O)c2cc(C(=O)Nc3cc4[nH]c([C@H]5CCCN5C)cc4cn3)ccc12 (stereo partly drawn) [Example 30, 1-(7-(2-(2,6-dioxopiperidin-3-yl)-1-oxoisoindolin-4-yl)hept-6-yn-1-yl)-3-methyl-N-(2-((R)-1-methylpyrrolidin-2-yl)-1H-pyrrolo [3,2-c]pyridin-6-yl)-1H-indazole-6-carboxamide] |
| 50 to 75 | ≥ 75 | 50 to 75 | 15 | Cc1nn(CCCC#Cc2cccc3c2CN(C2CCC(=O)NC2=O)C3=O)c2cc(C(=O)Nc3cc4[nH]c([C@H]5CCCN5C)cc4cn3)ccc12 (stereo partly drawn) [Example 32, 1-(5-(2-(2,6-dioxopiperidin-3-yl)-1-oxoisoindolin-4-yl)pent-4-yn-1-yl)-3-methyl-N-(2-((R)-1-methylpyrrolidin-2-yl)-1H-pyrrolo[3,2-c]pyridin-6-yl)-1H-indazole-6-carboxamide] |
| 50 to 75 | ≥ 75 | ≥ 75 | 5 | [2H]C([2H])([2H])N1CCC[C@@H]1c1cc2cnc(NC(=O)c3ccc4c(C)nn(CCCCCCCC#Cc5cccc6c5CN(C5CCC(=O)NC5=O)C6=O)c4c3)cc2[nH]1 (stereo partly drawn) [Example 44, 1-(9-(2-(2,6-dioxopiperidin-3-yl)-1-oxoisoindolin-4-yl)non-8-yn-1-yl)-3-methyl-N-(2-((R)-1-(methyl-d3)pyrrolidin-2-yl)-1H-pyrrolo[3,2-c]pyridin-6-yl)-1H-indazole-6-carboxamide] |
| ≥ 75 | ≥ 75 | ≥ 75 | 10 | Cc1nn(CCCCCCC#Cc2cccc3c2CN(C2CCC(=O)NC2=O)C3=O)c2cc(C(=O)Nc3cc4[nH]c([C@H]5CCCN5C)cc4cn3)ccc12 (stereo partly drawn) [Example 45, 1-(8-(2-(2,6-dioxopiperidin-3-yl)-1-oxoisoindolin-4-yl)oct-7-yn-1-yl)-3-methyl-N-(2-((R)-1-methylpyrrolidin-2-yl)-1H-pyrrolo[3,2-c]pyridin-6-yl)-1H-indazole-6-carboxamide] |
| ≥ 75 | ≥ 75 | 50 to 75 | 7 | Cc1nn(CCCCC#Cc2cccc3c2CN(C2CCC(=O)NC2=O)C3=O)c2cc(C(=O)Nc3cc4[nH]c([C@H]5CCCN5C)cc4cn3)ccc12 (stereo partly drawn) [Example 46, 1-(6-(2-(2,6-dioxopiperidin-3-yl)-1-oxoisoindolin-4-yl)hex-5-yn-1-yl)-3-methyl-N-(2-((R)-1-methylpyrrolidin-2-yl)-1H-pyrrolo[3.2-c]pyridin-6-yl)-1H-indazole-6-carboxamide] |
